Reference: patent US20090069373A1, “Quinoline Acids” (Wyeth, priority 2007, published 2009)

Tests used:
human LXRβ = target: T1, human LXRβ (Homo sapiens, UniProt P55055); assay: Ligand-binding test procedure for human LXRβ (3H T0901317 competition, flash plates); conditions: for Binding ratio a/b: IC50 (μM) LXRα binding/IC50 (μM) LXRβ binding; for IC50: biotinylated hLXRβ, tracer 3H T0901317
T1 construct: biotin (biotinylated; biotinylation tag not described); made in house; host or cells: E. coli
T1 sequence (P55055 1-460): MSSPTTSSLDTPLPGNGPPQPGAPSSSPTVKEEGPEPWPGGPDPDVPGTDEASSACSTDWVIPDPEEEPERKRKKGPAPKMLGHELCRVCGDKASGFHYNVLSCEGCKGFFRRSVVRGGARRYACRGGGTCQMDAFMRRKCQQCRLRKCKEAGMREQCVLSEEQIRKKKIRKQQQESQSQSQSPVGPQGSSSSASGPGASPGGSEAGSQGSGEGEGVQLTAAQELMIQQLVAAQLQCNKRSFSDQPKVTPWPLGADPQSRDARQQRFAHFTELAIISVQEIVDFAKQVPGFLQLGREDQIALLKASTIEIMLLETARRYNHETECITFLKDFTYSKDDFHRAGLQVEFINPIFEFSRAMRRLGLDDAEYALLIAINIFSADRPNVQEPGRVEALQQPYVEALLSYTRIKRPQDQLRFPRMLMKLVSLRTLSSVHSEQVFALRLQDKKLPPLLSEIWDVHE

human LXRα = target: T2, human LXRα (Homo sapiens, UniProt Q13133); assay: Ligand-binding test procedure for human LXRα (3H T0901317 competition, flash plates); conditions: biotinylated hLXRα, tracer 3H T0901317
T2 construct: biotin (biotinylated; biotinylation tag not described); made in house; host or cells: E. coli
T2 sequence (Q13133 1-447): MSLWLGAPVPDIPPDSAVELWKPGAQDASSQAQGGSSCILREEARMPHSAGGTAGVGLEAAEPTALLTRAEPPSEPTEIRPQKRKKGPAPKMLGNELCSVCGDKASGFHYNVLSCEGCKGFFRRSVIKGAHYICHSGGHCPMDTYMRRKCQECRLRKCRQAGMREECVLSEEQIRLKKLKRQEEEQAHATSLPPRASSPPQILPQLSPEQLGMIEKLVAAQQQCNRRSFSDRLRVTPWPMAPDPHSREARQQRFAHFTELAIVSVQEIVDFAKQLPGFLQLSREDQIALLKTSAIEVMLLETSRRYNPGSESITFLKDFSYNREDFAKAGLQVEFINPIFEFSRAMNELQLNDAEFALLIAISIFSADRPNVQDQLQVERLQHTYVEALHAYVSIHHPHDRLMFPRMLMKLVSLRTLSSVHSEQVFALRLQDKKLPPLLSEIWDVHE
Summary of the method: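 Competition binding of test ligands against 5 nM ³H tracer solution (pre-mix concentration) on biotinylated hLXRα from E. coli extract, captured on streptavidin flash plates (Bmax ~4000 cpm). Ligand dilution series made in DMSO. Incubated overnight at +4 °C; bound radioactivity counted after washing.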

ABCA1 gene = assay: Quantitative analysis of ABCA1 gene regulation in THP-1 cells (real-time RT-PCR); format: cell-based, human; conditions: differentiated THP-1 cells, ABCA1 mRNA, 18 hrs
Description: Quantitative Analysis of ABCA1 Gene Regulation in THP-1 Cells. […] Materials and Methods Cell culture: The THP-1 monocytic cell line (ATCC # TIB-202) was obtained from American Type Culture Collection (Manassas, Va.) and cultured in RPMI 1640 medium (Gibco, Carlsbad, Calif.) containing 10% FBS, 2 mM L-glutamine, and 55 uM beta-Mercaptoethanol (BME). […] Louis, Mo.) for three days to induce differentiation into adherent macrophages. Differentiated THP-1 cells were treated with test compounds or ligands dissolved in DMSO (Sigma, D-8779) in culture medium lacking phorbal ester. […] L., J. Med. Chem. (2000), 45:1963-1966.). Results of antagonist analysis are expressed as % antagonism and IC50 (in μM).

Cc1cnc2c(C(F)(F)F)cccc2c1-c1cccc(CNc2cccc3c(CC(=O)O)cccc23)c1 [Example 13, [5-({3-[3-methyl-8-(trifluoromethyl)quinolin-4-yl]benzyl}amino)-1-naphthyl]acetic acid] gave a Binding ratio a/b (human LXRβ) of 22, an IC50 (human LXRβ) of 10 nM and an IC50 (human LXRα) of 211 nM. The EC50 (ABCA1 gene; Homo sapiens) was 2630 nM and the “THP cells ABCA1 Ag. (%)” value (ABCA1 gene; LXR agonist reference at 1.0 uM as positive control) was 107.8%.
In the case of Cc1c(CC(=O)O)ccc(NCc2cncc(-c3c(Cc4ccccc4)cnc4c(C(F)(F)F)cccc34)c2)c1C [Example 10, {4-[({5-[3-Benzyl-8-(trifluoromethyl)quinolin-4-yl]pyridin-3-yl}methyl)amino]-2,3-dimethylphenyl}acetic acid], the Binding ratio a/b (human LXRβ) is reported as 22, the IC50 (human LXRβ) is reported as 28 nM and the IC50 (human LXRα) is reported as 615 nM.
O=C(O)c1ccc2cc(NCc3cncc(-c4c(Cc5ccccc5)cnc5c(C(F)(F)F)cccc45)c3)ccc2c1 [Example 6, 6-[({5-[3-Benzyl-8-(trifluoromethyl)quinolin-4-yl]pyridin-3-yl}methyl)amino]-2-naphthoic acid] gave a Binding ratio a/b (human LXRβ) of 25, an IC50 (human LXRβ) of 182 nM and an IC50 (human LXRα) of 4510 nM.
With O=C(O)c1ccc2cc(OCc3cccc(-c4c(Cc5ccccc5)cnc5c(C(F)(F)F)cccc45)c3)ccc2c1 [Example 39, 6-({3-[3-benzyl-8-(trifluoromethyl)quinolin-4-yl]benzyl}oxy)-2-naphthoic acid] the Binding ratio a/b (human LXRβ) was 7, the IC50 (human LXRβ) was 101 nM and the IC50 (human LXRα) was 683 nM.
O=C(O)c1c[nH]c2ccc(NCc3cccc(-c4c(Cc5ccccc5)cnc5c(C(F)(F)F)cccc45)c3)cc12 [Example 99, 5-({3-[3-benzyl-8-(trifluoromethyl)quinolin-4-yl]benzyl}amino)-1H-indole-3-carboxylic acid] gave a Binding ratio a/b (human LXRβ) of 2, an IC50 (human LXRβ) of 620 nM and an IC50 (human LXRα) of 1240 nM.
Cc1ccc(C(=O)O)c(NCc2cccc(-c3c(Cc4ccccc4)cnc4c(C(F)(F)F)cccc34)c2)c1 [Example 33, 2-({3-[3-benzyl-8-(trifluoromethyl)quinolin-4-yl]benzyl}amino)-4-methylbenzoic acid] was tested, and the Binding ratio a/b (human LXRβ) was 8, the IC50 (human LXRβ) was 166 nM and the IC50 (human LXRα) was 1290 nM.
O=C(O)CCc1cccc(NCc2cccc(-c3c(Cc4ccccc4)cnc4c(C(F)(F)F)cccc34)c2)c1 [Example 43, 3-[3-({3-[3-benzyl-8-(trifluoromethyl)quinolin-4-yl]benzyl}amino)phenyl]propanoic acid] gave a Binding ratio a/b (human LXRβ) of 6, an IC50 (human LXRβ) of 2 nM and an IC50 (human LXRα) of 15 nM.
For Cc1cc(C(=O)O)ccc1C#Cc1cccc(-c2c(Cc3ccccc3)cnc3c(C(F)(F)F)cccc23)c1 [Example 128, 4-({3-[3-Benzyl-8-(trifluoromethyl)quinolin-4-yl]phenyl}ethynyl)-3-methylbenzoic acid], the Binding ratio a/b (human LXRβ) was 7, the IC50 (human LXRβ) was 19 nM and the IC50 (human LXRα) was 137 nM.
O=C(O)c1cccc(-c2cccc(-c3c(Cc4ccccc4)cnc4c(C(F)(F)F)cccc34)c2)c1 [Example 130, 3′-[3-Benzyl-8-(trifluoromethyl)quinolin-4-yl]biphenyl-3-carboxylic acid] showed an IC50 (human LXRβ) of 2380 nM and an IC50 (human LXRα) of 1320 nM.
Cc1cc(C(=O)O)cc(C)c1OCc1cccc(-c2c(Cc3ccccc3)cnc3c(C(F)(F)F)cccc23)c1 [Example 26, 4-({3-[3-benzyl-8-(trifluoromethyl)quinolin-4-yl]benzyl}oxy)-3,5-dimethylbenzoic acid] showed a Binding ratio a/b (human LXRβ) of 10, an IC50 (human LXRβ) of 32 nM and an IC50 (human LXRα) of 325 nM.
Molecule O=C(O)c1c[nH]c2c(NCc3cccc(-c4c(Cc5ccccc5)cnc5c(C(F)(F)F)cccc45)c3)cccc12 [Example 83, 7-({3-[3-benzyl-8-(trifluoromethyl)quinolin-4-yl]benzyl}amino)-1H-indole-3-carboxylic acid] has a Binding ratio a/b (human LXRβ) of 3, an IC50 (human LXRβ) of 292 nM and an IC50 (human LXRα) of 802 nM.
Molecule Cc1cccc(NCc2cccc(-c3c(Cc4ccccc4)cnc4c(C(F)(F)F)cccc34)c2)c1C(=O)O [Example 93, 2-({3-[3-benzyl-8-(trifluoromethyl)quinolin-4-yl]benzyl}amino)-6-methylbenzoic acid] has a Binding ratio a/b (human LXRβ) of 2, an IC50 (human LXRβ) of 906 nM and an IC50 (human LXRα) of 2000 nM.
O=C(O)c1cccc(Oc2cccc(-c3c(Cc4ccccc4)cnc4c(Cl)cccc34)c2)c1 [Example 125, 3-[3-(3-Benzyl-8-chloroquinolin-4-yl)phenoxy]benzoic acid] showed a Binding ratio a/b (human LXRβ) of 1, an IC50 (human LXRβ) of 228 nM and an IC50 (human LXRα) of 267 nM.
With Cc1ccc(NCc2cccc(-c3c(Cc4ccccc4)cnc4c(C(F)(F)F)cccc34)c2)c(C(=O)O)c1 [Example 71, 2-({3-[3-benzyl-8-(trifluoromethyl)quinolin-4-yl]benzyl}amino)-5-methylbenzoic acid] the Binding ratio a/b (human LXRβ) was 4, the IC50 (human LXRβ) was 558 nM and the IC50 (human LXRα) was 2060 nM.
Work on Cc1cnc2c(C(F)(F)F)cccc2c1-c1cccc(CNc2ccc(CC(=O)O)c(C)c2C)c1 [Example 16, [2,3-dimethyl-4-({3-[3-methyl-8-(trifluoromethyl)quinolin-4-yl]benzyl}amino)phenyl]acetic acid] yielded a Binding ratio a/b (human LXRβ) of 18, an IC50 (human LXRβ) of 295 nM and an IC50 (human LXRα) of 5190 nM.
Molecule O=C(O)CC1CCc2c(OCc3cccc(-c4c(Cc5ccccc5)cnc5c(C(F)(F)F)cccc45)c3)cccc21 (stereo not drawn) [Example 38, [4-({3-[3-benzyl-8-(trifluoromethyl)quinolin-4-yl]benzyl}oxy)-2,3-dihydro-1H-inden-1-yl]acetic acid] has a Binding ratio a/b (human LXRβ) of 7, an IC50 (human LXRβ) of 8 nM and an IC50 (human LXRα) of 51 nM.
O=C(N[C@@H](Cc1c[nH]cn1)C(=O)O)c1cccc(COc2cccc(-c3c(Cc4ccccc4)cnc4c(C(F)(F)F)cccc34)c2)c1 [Example 72, N-[3-({3-[3-benzyl-8-(trifluoromethyl)quinolin-4-yl]phenoxy}methyl)benzoyl]histidine] was tested, and the Binding ratio a/b (human LXRβ) was 4, the IC50 (human LXRβ) was 309 nM and the IC50 (human LXRα) was 1100 nM.
Molecule O=C(O)Cc1ccc(NCc2cccc(-c3ccnc4c(C(F)(F)F)cccc34)c2)c2ccccc12 [Example 65, [4-({3-[8-(trifluoromethyl)quinolin-4-yl]benzyl}amino)-1-naphthyl]acetic acid] has a Binding ratio a/b (human LXRβ) of 4, an IC50 (human LXRβ) of 2050 nM and an IC50 (human LXRα) of 8830 nM.
With O=C(O)CC1=CCCc2c(OCc3cccc(-c4c(Cc5ccccc5)cnc5c(C(F)(F)F)cccc45)c3)cccc21 [Example 19, [5-({3-[3-benzyl-8-(trifluoromethyl)quinolin-4-yl]benzyl}oxy)-3,4-dihydronaphthalen-1-yl]acetic acid] the Binding ratio a/b (human LXRβ) was 16, the IC50 (human LXRβ) was 8 nM and the IC50 (human LXRα) was 133 nM.
Work on O=C(O)c1ccc2cc(NCc3cccc(-c4c(Cc5ccccc5)cnc5c(C(F)(F)F)cccc45)c3)ccc2c1 [Example 23, 6-({3-[3-benzyl-8-(trifluoromethyl)quinolin-4-yl]benzyl}amino)-2-naphthoic acid] yielded a Binding ratio a/b (human LXRβ) of 11, an IC50 (human LXRβ) of 62 nM and an IC50 (human LXRα) of 667 nM.
O=C(O)c1cc(F)ccc1NCc1cccc(-c2c(Cc3ccccc3)cnc3c(C(F)(F)F)cccc23)c1 [Example 112, 2-({3-[3-benzyl-8-(trifluoromethyl)quinolin-4-yl]benzyl}amino)-5-fluorobenzoic acid] gave a Binding ratio a/b (human LXRβ) of 1, an IC50 (human LXRβ) of 464 nM and an IC50 (human LXRα) of 517 nM.
In the case of Cc1cc(NCc2cncc(-c3c(C)cnc4c(C(F)(F)F)cccc34)c2)c(C)cc1CC(=O)O [Example 117, {2,5-dimethyl-4-[({5-[3-methyl-8-(trifluoromethyl)quinolin-4-yl]pyridin-3-yl}methyl)amino]phenyl}acetic acid], the IC50 (human LXRβ) is reported as 2520 nM and the IC50 (human LXRα) is reported as > 1000 nM.
For O=C(O)c1c(F)cccc1NCc1cccc(-c2c(Cc3ccccc3)cnc3c(C(F)(F)F)cccc23)c1 [Example 58, 2-({3-[3-benzyl-8-(trifluoromethyl)quinolin-4-yl]benzyl}amino)-6-fluorobenzoic acid], the Binding ratio a/b (human LXRβ) was 5, the IC50 (human LXRβ) was 25 nM and the IC50 (human LXRα) was 121 nM.
